In patent US7371766B2, “Curcumin analogs with anti-tumor and anti-angiogenic properties” (Emory University, priority 1999, dated 2008):

Tests used:
Assay in all cases: cells
MDA-MB-231 = conditions: Homo sapiens, MDA-MB-231, 48 h; for GI50: read-out: Median Growth Inhibitory Concentration (GI50); for CC50: read-out: Median Lethal Concentration (LC50)
HS 578T = conditions: Homo sapiens, 48 h; for GI50: read-out: Median Growth Inhibitory Concentration (GI50); for CC50: read-out: Median Lethal Concentration (LC50)
M14 = conditions: Homo sapiens, M14, 48 h; for GI50: read-out: Median Growth Inhibitory Concentration (GI50); for CC50: read-out: Median Lethal Concentration (LC50)
NCI/ADR-RES = conditions: Homo sapiens, 48 h; for GI50: read-out: Median Growth Inhibitory Concentration (GI50); for CC50: read-out: Median Lethal Concentration (LC50)
U251 = conditions: Homo sapiens, U-251, 48 h; for GI50: read-out: Median Growth Inhibitory Concentration (GI50); for CC50: read-out: Median Lethal Concentration (LC50)
A498 = conditions: Homo sapiens, A498, 48 h; for GI50: read-out: Median Growth Inhibitory Concentration (GI50); for CC50: read-out: Median Lethal Concentration (LC50)
A549 = conditions: Homo sapiens, A549, 48 h; for GI50: read-out: Median Growth Inhibitory Concentration (GI50); for CC50: read-out: Median Lethal Concentration (LC50)
UACC-62 = conditions: Homo sapiens, UACC-62, 48 h; for GI50: read-out: Median Growth Inhibitory Concentration (GI50); for CC50: read-out: Median Lethal Concentration (LC50)
K-562 = conditions: Homo sapiens, K562, 48 h; for GI50: read-out: Median Growth Inhibitory Concentration (GI50); for CC50: read-out: Median Lethal Concentration (LC50)
HOP-62 = conditions: Homo sapiens, HOP-62, 48 h; for GI50: read-out: Median Growth Inhibitory Concentration (GI50)
HCT-15 = conditions: Homo sapiens, HCT-15, 48 h; for GI50: read-out: Median Growth Inhibitory Concentration (GI50); for CC50: read-out: Median Lethal Concentration (LC50)
TK-10 = conditions: Homo sapiens, TK-10, 48 h; for GI50: read-out: Median Growth Inhibitory Concentration (GI50); for CC50: read-out: Median Lethal Concentration (LC50)
ACHN = conditions: Homo sapiens, 48 h; for GI50: read-out: Median Growth Inhibitory Concentration (GI50); for CC50: read-out: Median Lethal Concentration (LC50)
COLO 205 = conditions: Homo sapiens, COLO 205, 48 h; for GI50: read-out: Median Growth Inhibitory Concentration (GI50); for CC50: read-out: Median Lethal Concentration (LC50)
CAKI-1 = conditions: Homo sapiens, CAKI-1, 48 h; for GI50: read-out: Median Growth Inhibitory Concentration (GI50); for CC50: read-out: Median Lethal Concentration (LC50)
HCT-116 = conditions: Homo sapiens, HCT-116, 48 h; for GI50: read-out: Median Growth Inhibitory Concentration (GI50); for CC50: read-out: Median Lethal Concentration (LC50)
BT-549 = conditions: Homo sapiens, BT-549, 48 h; for GI50: read-out: Median Growth Inhibitory Concentration (GI50); for CC50: read-out: Median Lethal Concentration (LC50)
NCI-H522 = conditions: Homo sapiens, NCI-H522, 48 h; for GI50: read-out: Median Growth Inhibitory Concentration (GI50); for CC50: read-out: Median Lethal Concentration (LC50)
LOX IMVI = conditions: Homo sapiens, 48 h; for GI50: read-out: Median Growth Inhibitory Concentration (GI50)
NCI-H460 = conditions: Homo sapiens, NCI-H460, 48 h; for GI50: read-out: Median Growth Inhibitory Concentration (GI50); for CC50: read-out: Median Lethal Concentration (LC50)
SK-MEL-5 = conditions: Homo sapiens, SK-MEL-5, 48 h; for GI50: read-out: Median Growth Inhibitory Concentration (GI50)
MOLT-4 = conditions: Homo sapiens, MOLT-4, 48 h; for GI50: read-out: Median Growth Inhibitory Concentration (GI50); for CC50: read-out: Median Lethal Concentration (LC50)
HL-60 (TB) = conditions: Homo sapiens, HL-60, 48 h; for GI50: read-out: Median Growth Inhibitory Concentration (GI50); for CC50: read-out: Median Lethal Concentration (LC50)
EKVX = conditions: Homo sapiens, 48 h; for GI50: read-out: Median Growth Inhibitory Concentration (GI50); for CC50: read-out: Median Lethal Concentration (LC50)
SW-620 = conditions: Homo sapiens, SW-620, 48 h; for GI50: read-out: Median Growth Inhibitory Concentration (GI50); for CC50: read-out: Median Lethal Concentration (LC50)
HT29 = conditions: Homo sapiens, HT-29, 48 h; for GI50: read-out: Median Growth Inhibitory Concentration (GI50); for CC50: read-out: Median Lethal Concentration (LC50)
CCRF-CEM = conditions: Homo sapiens, 48 h; for GI50: read-out: Median Growth Inhibitory Concentration (GI50)
RXF 393 = conditions: Homo sapiens, RXF 393, 48 h; for GI50: read-out: Median Growth Inhibitory Concentration (GI50); for CC50: read-out: Median Lethal Concentration (LC50)
MCF-7 = conditions: Homo sapiens, MCF7, 48 h; for GI50: read-out: Median Growth Inhibitory Concentration (GI50); for CC50: read-out: Median Lethal Concentration (LC50)
OVCAR-4 = conditions: Homo sapiens, OVCAR-4, 48 h; for GI50: read-out: Median Growth Inhibitory Concentration (GI50); for CC50: read-out: Median Lethal Concentration (LC50)
[1] = read-out: Median Lethal Concentration (LC50)

COc1cc(/C=C/C(=O)CC(=O)/C=C/c2ccc(O)c(OC)c2)ccc1O [Curcumin]
GI50 (MDA-MB-231): 20 µM
CC50 (MDA-MB-231): < 100 µM
GI50 (HS 578T): 10 µM
CC50 (HS 578T): < 100 µM
GI50 (M14): 4 µM
CC50 (M14): 50.1 µM
GI50 (NCI/ADR-RES): 7.9 µM
CC50 (NCI/ADR-RES): < 100 µM
GI50 (U251): 5 µM
CC50 (U251): 50.1 µM
GI50 (A498): 15.8 µM
CC50 (A498): 63.1 µM
GI50 (A549): 12.6 µM
CC50 (A549): 79.4 µM
GI50 (UACC-62): 6.3 µM
CC50 (UACC-62): 50.1 µM
GI50 (K-562): 3.2 µM
CC50 (K-562): < 100 µM
GI50 (HOP-62): 4 µM
GI50 (HCT-15): 4 µM
CC50 (HCT-15): 79.4 µM
GI50 (TK-10): 15.8 µM
CC50 (TK-10): 63.1 µM
GI50 (ACHN): 12.6 µM
CC50 (ACHN): 63.1 µM
GI50 (COLO 205): 12.6 µM
CC50 (COLO 205): 63.1 µM
GI50 (CAKI-1): 12.6 µM
CC50 (CAKI-1): 50.1 µM
GI50 (HCT-116): 3.2 µM
CC50 (HCT-116): 50.1 µM
GI50 (BT-549): 5 µM
CC50 (BT-549): 39.8 µM
GI50 (NCI-H522): 5 µM
CC50 (NCI-H522): 79.4 µM
GI50 (LOX IMVI): 2.5 µM
GI50 (NCI-H460): 7.9 µM
CC50 (NCI-H460): 63.1 µM
GI50 (SK-MEL-5): 7.9 µM
GI50 (MOLT-4): 5 µM
CC50 (MOLT-4): 79.4 µM
GI50 (HL-60 (TB)): 7.9 µM
CC50 (HL-60 (TB)): < 100 µM
GI50 (EKVX): 15.8 µM
CC50 (EKVX): 79.4 µM
GI50 (SW-620): 4 µM
CC50 (SW-620): 79.4 µM
GI50 (HT29): 5 µM
CC50 (HT29): < 100 µM
GI50 (CCRF-CEM): 3.2 µM
GI50 (RXF 393): 3.2 µM
CC50 (RXF 393): 50.1 µM
GI50 (MCF-7): 3.2 µM
CC50 (MCF-7): < 100 µM
GI50 (OVCAR-4): 10 µM
CC50 (OVCAR-4): < 100 µM

O=C1C(=Cc2ccccc2O)CCCC1=Cc1ccccc1O [EF4, 2,6Bis(2-hydroxybenzylidene)cyclohexanone]
GI50 (MDA-MB-231): 3.5 µM
CC50 (MDA-MB-231): > 100 µM
GI50 (HS 578T): 5.1 µM
CC50 (HS 578T): > 100 µM
GI50 (M14): 1.9 µM
CC50 (M14): 13.2 µM
GI50 (NCI/ADR-RES): 2.7 µM
CC50 (NCI/ADR-RES): > 100 µM
GI50 (U251): 2 µM
CC50 (U251): 18.5 µM
GI50 (A498): 2.2 µM
CC50 (A498): 16.2 µM
GI50 (A549): 2.6 µM
CC50 (A549): > 100 µM
GI50 (UACC-62): 1.5 µM
CC50 (UACC-62): 6.1 µM
GI50 (K-562): 2.5 µM
CC50 (K-562): 91.4 µM
GI50 (HOP-62): 2.9 µM
GI50 (HCT-15): 2.2 µM
CC50 (HCT-15): > 100 µM
GI50 (TK-10): 3 µM
CC50 (TK-10): 22.6 µM
GI50 (ACHN): 3.3 µM
CC50 (ACHN): 32.7 µM
GI50 (COLO 205): 2 µM
CC50 (COLO 205): 8.7 µM
GI50 (CAKI-1): 3.1 µM
CC50 (CAKI-1): > 100 µM
GI50 (HCT-116): 2.2 µM
CC50 (HCT-116): 13.2 µM
GI50 (BT-549): 2.4 µM
CC50 (BT-549): 26.1 µM
GI50 (NCI-H522): 2.9 µM
CC50 (NCI-H522): > 100 µM
GI50 (LOX IMVI): 2.2 µM
GI50 (NCI-H460): 2.3 µM
CC50 (NCI-H460): 40.2 µM
GI50 (SK-MEL-5): 1.6 µM
GI50 (MOLT-4): 2.2 µM
CC50 (MOLT-4): 69.5 µM
GI50 (HL-60 (TB)): 1.9 µM
CC50 (HL-60 (TB)): 53.5 µM
GI50 (EKVX): 2.3 µM
CC50 (EKVX): 37.2 µM
GI50 (SW-620): 2.7 µM
CC50 (SW-620): 76.3 µM
GI50 (HT29): 2.2 µM
CC50 (HT29): 29.1 µM
GI50 (CCRF-CEM): 1.4 µM
GI50 (RXF 393): 0.5 µM
CC50 (RXF 393): 30.8 µM
GI50 (MCF-7): 2.7 µM
CC50 (MCF-7): 44.1 µM
GI50 (OVCAR-4): 2.5 µM
CC50 (OVCAR-4): 18.4 µM

CC1(/C=C/c2ccccc2O)C=Cc2ccccc2O1 (stereo not shown) [EF7]
GI50 (MDA-MB-231): 19.8 µM
CC50 (MDA-MB-231): 74.6 µM
GI50 (HS 578T): 22.4 µM
CC50 (HS 578T): > 100 µM
GI50 (M14): 15.7 µM
CC50 (M14): 54 µM
GI50 (NCI/ADR-RES): 19.3 µM
CC50 (NCI/ADR-RES): > 100 µM
GI50 (U251): 16.1 µM
CC50 (U251): 54.4 µM
GI50 (A498): 17.2 µM
CC50 (A498): 55.6 µM
GI50 (A549): 14.9 µM
CC50 (A549): 53.3 µM
GI50 (UACC-62): 12.2 µM
CC50 (UACC-62): 49.6 µM
GI50 (K-562): 14.9 µM
CC50 (K-562): 70.7 µM
GI50 (HOP-62): 16.3 µM
CC50 (HOP-62; [1]): 63.1 µM
GI50 (HCT-15): 17.2 µM
CC50 (HCT-15): 68.9 µM
GI50 (TK-10): 17.4 µM
CC50 (TK-10): 55.9 µM
GI50 (ACHN): 15.7 µM
CC50 (ACHN): 54 µM
GI50 (COLO 205): 17.5 µM
CC50 (COLO 205): 55.9 µM
GI50 (CAKI-1): 14.3 µM
CC50 (CAKI-1): 52.3 µM
GI50 (HCT-116): 17.6 µM
CC50 (HCT-116): 57.6 µM
GI50 (BT-549): 17.1 µM
CC50 (BT-549): 56.8 µM
GI50 (NCI-H522): 16.2 µM
CC50 (NCI-H522): > 100 µM
GI50 (LOX IMVI): 17.2 µM
CC50 (LOX IMVI; [1]): 73.4 µM
GI50 (NCI-H460): 17.6 µM
CC50 (NCI-H460): 66.8 µM
GI50 (SK-MEL-5): 15.5 µM
CC50 (SK-MEL-5; [1]): 53.7 µM
GI50 (MOLT-4): 7.7 µM
CC50 (MOLT-4): 64.7 µM
GI50 (HL-60 (TB)): 17.7 µM
CC50 (HL-60 (TB)): 76 µM
GI50 (EKVX): 17.3 µM
CC50 (EKVX): 56.6 µM
GI50 (SW-620): 16.2 µM
CC50 (SW-620): 65.9 µM
GI50 (HT29): 17.8 µM
CC50 (HT29): 60.6 µM
GI50 (CCRF-CEM): 12.5 µM
CC50 (CCRF-CEM; [1]): 79.5 µM
GI50 (RXF 393): 11 µM
CC50 (RXF 393): 49.2 µM
GI50 (MCF-7): 18 µM
CC50 (MCF-7): 65.9 µM
GI50 (OVCAR-4): 14.1 µM
CC50 (OVCAR-4): 53.1 µM
